Experiments:
[1] = Pharmacokinetic study via oral administration in mice, ocular concentrations; assay type: in vivo, mice C57BL/6; details: for Tmax: C57BL/6, mouse, eye, po; for Eye Exposure 50 mg/kg p.o. AUC: Table 3, repeats the eye exposure of Table 2
Description: (§1) The pharmacokinetic study of the chemical compounds (C) following the oral administration thereof was conducted using mice C57BL/6 (January, 53940 The Genest Saint Isle, France). The chemical compounds derived from norbixin (C) were administered at a dose of 50 mg/kg of body weight. After administration, the blood was sampled at the tail at t=0.25 h; 0.5 h; 1 h; 3 h; 6 h and 8 h. The blood samples were centrifuged and the plasmas taken. The dosage of the plasma samples made it possible to determine pharmacokinetic parameters, namely Cmax, which corresponds to the maximum concentration observed after the administration of the molecule, Tmax which is the time required to reach maximum concentration after administration of the molecule and the AUC: the area under the curve which corresponds to the plasma exposure (FIG. 2).
In parallel, the ocular concentrations of the chemical compounds derived from norbixin (C) were dosed in the following way (FIG. 1): both eyes of each mouse were taken in Precellys tubes and stored at −80° C. until the time of dosing. The eyes are then ground in the Precellys tubes with a bench homogenizer, Fast-prep (Fischer Scientific, Hampton, United States) in a mixture of organic solvents, in a first step with 500 μL of chloroform/methanol (1/1, v/v) then 500 μL of chloroform/dichloromethane (1/1, v/v). The supernatants are recovered at each step and transferred to a 96-well plate of 2 mL.
For the quantification of the chemical compounds C, a calibration curve is carried out with 8 standards (5 to 5,000 ng/mL) in the same organic solvent mixtures and transferred (100 μL) to the 96-well plate of 2 mL.
The supernatants and standards are evaporated in a EZ2 (Genevac, Ipswich, United Kingdom), without heating, then taken with 100 μL of DMSO/methanol (20:80, v/v) before being transferred to a 96-well plate of 200 μL.
(§2) The LC-MSMS analysis is carried out with a HPLC 1200 Infinity chain (Agilent Technologies, Santa-Clara, United States), a UV detector and a mass spectrometer QQQ6420 (Agilent Technologies Santa-Clara, United States). The injection volume is 5 μL. The chemical compounds C are eluted on an inverse phase column C18 (2.1*50 mm, particles 3 μm; Ace-C18-Excel, AIT) with a gradient of acetonitrile and water (containing 0.1% formic acid) and a flow rate of 0.3 mL/min. The conditions of the gradient can change according to the chemical compound C analyzed. The UV detector analyzes at 460 nm and the mass spectrometer analyzed in Mode MRM—Positive.
(§3) Table 2 discloses the pharmacokinetic results of the chemical compounds C following the administration p.o. 50 mg/kg in D-α-Tocopheryl polyethylene glycol 1000 succinate (VitE-TPGS) 20% in a sodium bicarbonate buffer (0.1M).

[2] = Pharmacokinetic study via oral administration in mice, plasma concentrations; assay type: in vivo, mice C57BL/6; details: C57BL/6, mouse, in vivo, po, 50 mg/kg
Description: as §1, §2, §3

[3] = system: primary cultures of RPE of adult pigs; experiment: In vitro photoprotection of RPE cells illuminated with blue light in the presence of A2E; assay type: cell-based, pig; details: Sus scrofa, RPE, A2E 30 μM, survival 24 h after illumination; for viability at 5 µM: 5 μM compound; for viability at 10 µM: 10 μM compound; for viability at 20 µM: 20 μM compound
From the text: In addition to better distribution in the target-tissue, selecting new compounds must also be based on good photo-protective activity that limits the loss of the cells of the RPE and thus reducing the retinal degeneration observed during the AMD and other degenerative diseases such as Retinitis pigmentosa and Stargardt's disease. At the cellular level, on cultures of cells the RPE coming from pig retina, Fontaine et al. (2016) have shown that a treatment with norbixin (BIO201) protects the cells of the RPE against apoptosis following an illumination in the presence of A2E (80% survival 24 h after exposure). This same screening test according to the percentage of photoprotection was used so as to determine its modulation by and the chemical compounds derived from norbixin (C) object of the present invention in comparison with the photo-protective effect of norbixin and characterize these modulations from a statical standpoint.
The test in vitro described hereinabove and intended to study the photo-protective effect of norbixin was used so as to quantify the photo-protective effects of the various chemical compounds derived from norbixin (C) on the cells of the RPE illuminated with blue light in the presence of A2E (FIG. 3). The photo-protective effect of the molecules was evaluated in a phototoxicity cellular model induced by treatment by A2E followed by an illumination with blue light. The term “blue radiation” means the radiation corresponding to the blue band of the visible light spectrum, i.e. of a wavelength comprised between 435 and 490 nm. This model uses primary cultures of RPE of adult pigs. The cell survival is quantified thanks to a test of cellular viability. At −48 h the compounds to be tested (in solution at 5 mM in the DMSO) are added to obtain the final concentrations of 1 to 20 μM) then at −19 h of the A2E (final concentration 30 μM) and the cells (time 0 h) are illuminated. 24 h after the survival of the cells is measured. The acquisition of images, as well as the processing thereof, are carried out using a fluorescence microscope controlled by the Metamorph software and a dedicated quantification program. The experiments are conducted on a 96-well microplate in quadruplicate and the experiment is reproduced at least four times. The results are expressed in the form of a ratio representing the number of living cells in the wells treated by the molecules to be tested, divided by the number of living cells in the controlled wells (treated by the dilution medium without A2E). This test made it possible hereinabove to reveal the photo-protective activity of norbixin (Fontaine et al. 2016).

[4] = mice, p.o. 50 mg/kg in VitE-TPGS 20% in sodium bicarbonate buffer (0.1M)

SMILES	Tmax [1, 4]	Eye Exposure 50 mg/kg p.o. AUC [1]	Eye CMax [1, 4]	Cmax [2]	Plasma Exposure [2]	Tmax [2]	viability at 5 µM [3]	viability at 10 µM [3]	viability at 20 µM [3]	Eye Exposure ([1]; mice, p.o. 50 mg/kg in VitE-TPGS 20% in sodium bicarbonate buffer (0.1M), area under the curve)
CC(=C/C=C/C(C)=C/C=C/C=C(C)/C=C/C=C(C)/C=C/C(=O)NCCN1CCOCC1)/C=C/C(=O)O [C10, 1-[2-morpholinoethanamido](2E,4E,6E,8E,10E,12E,14E,16Z,18E)-4,8,13,17-tetramethylicosa-2,4,6,8,10,12,14,16,18-nonaenedioate]	60 min	533.2 ng · h/eye	64.3 ng/eye	30400 ng/mL	108.1 µg·h/mL	60 min	15.5%	27.4%	80.3%	
CC(=C/C=C/C(C)=C/C=C/C=C(C)/C=C/C=C(C)/C=C/C(=O)N1CCC(O)CC1)/C=C/C(=O)O [C12, 1-[4-hydroxypiperidinamido](2E,4E,6E,8E,10E,12E,14E,16Z,18E)-4,8,13,17-tetramethylicosa-2,4,6,8,10,12,14,16,18-nonaenedioate]	60 min	538.4 ng · h/eye	50.7 ng/eye	29300 ng/mL	186.3 µg·h/mL	30 min	7.7%	14.3%	59.6%	
CC(=C/C=C/C(C)=C/C=C/C=C(C)/C=C/C=C(C)/C=C/C(=O)NCC(C)(C)N1CCOCC1)/C=C/C(=O)O [C13, 1-[2-methyl-2-(4-morpholinyl)propylamido](2E,4E,6E,8E,10E,12E,14E,16Z,18E)-4,8,13,17-tetramethylicosa-2,4,6,8,10,12,14,16,18-nonaenedioate]	60 min	461.1 ng · h/eye	60.7 ng/eye	27900 ng/mL	139.7 µg·h/mL	30 min	8%	0.5%	8%	
CC(=C/C=C/C(C)=C/C=C/C=C(C)/C=C/C=C(C)/C=C/C(=O)N1CCC(CO)CC1)/C=C/C(=O)O [C14, 1-[4-hydroxymethylpiperidinamido](2E,4E,6E,8E,10E,12E,14E,16Z,18E)-4,8,13,17-tetramethylicosa-2,4,6,8,10,12,14,16,18-nonaenedioate]	60 min	322.5 ng · h/eye	43.2 ng/eye	19000 ng/mL	162.2 µg·h/mL	30 min	3.1%	46.8%	79.3%	
CC(=C/C=C/C(C)=C/C=C/C=C(C)/C=C/C=C(C)/C=C/C(=O)N1C[C@@H](C)O[C@@H](C)C1)/C=C/C(=O)O [C15]	30 min	108.5 ng · h/eye	22.8 ng/eye	17300 ng/mL	46.99 µg·h/mL	30 min	5.4%	10%	58.5%	108.5 ng · h/eye
CC(=C/C=C/C(C)=C/C=C/C=C(C)/C=C/C=C(C)/C=C/C(=O)NCCc1ccc(O)cc1)/C=C/C(=O)O [C16, 1-[4-hydroxyphenylethanamido](2E,4E,6E,8E,10E,12E,14E,16Z,18E)-4,8,13,17-tetramethylicosa-2,4,6,8,10,12,14,16,18-nonaenedioate]	30 min	8.7 ng · h/eye	7.4 ng/eye	10500 ng/mL	13.23 µg·h/mL	60 min	70.2%	81.7%	26.8%	
CC(=C/C=C/C(C)=C/C=C/C=C(C)/C=C/C=C(C)/C=C/C(=O)N1CCC(C(=O)O)CC1)/C=C/C(=O)O [C18, 1-[4-carboxypiperidinamido](2E,4E,6E,8E,10E,12E,14E,16Z,18E)-4,8,13,17-tetramethylicosa-2,4,6,8,10,12,14,16,18-nonaenedioate]	120 min	307.8 ng · h/eye	27.7 ng/eye	61600 ng/mL	948.84 µg·h/mL	30 min	27.3%	43.1%	63.8%	
CC(=C/C=C/C(C)=C/C=C/C=C(C)/C=C/C=C(C)/C=C/C(=O)N[C@H]1CC[C@H](O)CC1)/C=C/C(=O)O [C19, 1-[(E)-4-hydroxycyclohexamido](2E,4E,6E,8E,10E,12E,14E,16Z,18E)-4,8,13,17-tetramethylicosa-2,4,6,8,10,12,14,16,18-nonaenedioate]	30 min	37.5 ng · h/eye	5.7 ng/eye	6620 ng/mL	22.8 µg·h/mL	15 min	60.6%	60.6%	79.9%	
COC1CCCN(C(=O)/C=C/C(C)=C/C=C/C(C)=C/C=C/C=C(C)/C=C/C=C(C)\C=C\C(=O)O)C1 (stereo not shown) [C20, 1-[3-methoxypiperidinamido](2E,4E,6E,8E,10E,12E,14E,16Z,18E)-4,8,13,17-tetramethylicosa-2,4,6,8,10,12,14,16,18-nonaenedioate]	120 min	421.9 ng · h/eye	80.4 ng/eye	35000 ng/mL	160.4 µg·h/mL	60 min	65.6%	65.6%	79%	
CCCOC1CCN(C(=O)/C=C/C(C)=C/C=C/C(C)=C/C=C/C=C(C)/C=C/C=C(C)\C=C\C(=O)O)CC1 [C22, 1-[4-n-propoxypiperidinamido](2E,4E,6E,8E,10E,12E,14E,16Z,18E)-4,8,13,17-tetramethylicosa-2,4,6,8,10,12,14,16,18-nonaenedioate]	120 min	358.5 ng · h/eye	42.1 ng/eye	12800 ng/mL	37.25 µg·h/mL	15 min	64.5%	72.8%	66%	

— patent US12215067B2, “Chemical compounds targeting the eye and use thereof in the treatment of eye diseases” (BIOPHYTIS, priority 2019, dated 2025)
